Data from patent US20020090380A1, “Novel formulation comprising thymol useful in the treatment of drug resistant bacterial infections” (priority 2000, published 2002).
Like-named read-outs stand apart in the source and are kept apart here.

Experiments:
E. coli CA 8000 (WT) = type: cell-based, Escherichia coli; conditions: CA 8000 (WT)
[1] = test system: lomefloxacin resistant cells of E. coli; type: cell-based, Escherichia coli
E. coli cells = experiment: microbe, parasite or virus in culture; type: cell-based; conditions: Escherichia coli
Nal^R mutants of E. coli = type: cell-based, Escherichia coli; conditions: 50 μg/ml
[2] = test system: Ethidium bromide resistant strain of Mycobacterium smegmetis; type: cell-based

CCn1cc(C(=O)O)c(=O)c2cc(F)c(N3CCNCC3)cc21 [Aorfloxacin]
Growth in poison agar medium (E. coli CA 8000 (WT); 20 μg/ml, Table 4): −
Growth in poison agar medium ([1]; CAL 101, 20 μg/ml): +
Growth in poison agar medium ([1]; CAL 102, 20 μg/ml): +
Growth in poison agar medium ([1]; CAL 103, 20 μg/ml): +
Growth in poison agar medium ([1]; CAL 104, 20 μg/ml): +
Growth in poison agar medium ([1]; CAL 105, 20 μg/ml): +
Growth in poison agar medium ([1]; CAL 106, 20 μg/ml): +
Growth in poison agar medium ([1]; CAL 107, 20 μg/ml): +
Growth in poison agar medium ([1]; CAL 108, 20 μg/ml): +

CCn1cc(C(=O)O)c(=O)c2ccc(C)nc21 [Nalidixic Acid, nalidixic acid]
zone of inhibition at 0.25 µg/disc (E. coli cells; nalidixic acid 0.25 μg/disc): 3 mm
zone of inhibition at 0.5 µg/disc (E. coli cells; nalidixic acid 0.50 μg/disc): 6 mm
zone of inhibition at 1 µg/disc (E. coli cells; nalidixic acid 1.00 μg/disc): 9 mm
zone of inhibition at 1.5 µg/disc (E. coli cells; nalidixic acid 1.50 μg/disc): 11 mm
zone of inhibition at 2 µg/disc (E. coli cells; nalidixic acid 2.00 μg/disc): 12 mm
Growth in poison agar medium (E. coli CA 8000 (WT); 50 μg/ml, Table 2): −
Growth in poison agar medium (E. coli CA 8000 (WT); 50 μg/ml, Table 4): −
Growth in poison agar medium ([1]; CAL 101, 50 μg/ml): +
Growth in poison agar medium ([1]; CAL 102, 50 μg/ml): +
Growth in poison agar medium ([1]; CAL 103, 50 μg/ml): +
Growth in poison agar medium ([1]; CAL 104, 50 μg/ml): +
Growth in poison agar medium ([1]; CAL 105, 50 μg/ml): +
Growth in poison agar medium ([1]; CAL 106, 50 μg/ml): +
Growth in poison agar medium ([1]; CAL 107, 50 μg/ml): +
Growth in poison agar medium ([1]; CAL 108, 50 μg/ml): +
Growth in poison agar medium (Nal^R mutants of E. coli; CAN 101): +
Growth in poison agar medium (Nal^R mutants of E. coli; CAN 102): +
Growth in poison agar medium (Nal^R mutants of E. coli; CAN 103): +
Growth in poison agar medium (Nal^R mutants of E. coli; CAN 104): +
Growth in poison agar medium (Nal^R mutants of E. coli; CAN 105): +
Growth in poison agar medium (Nal^R mutants of E. coli; CAN 106): +
Growth in poison agar medium (Nal^R mutants of E. coli; CAN 107): +
Growth in poison agar medium (Nal^R mutants of E. coli; CAN 108): +
Growth in poison agar medium (Nal^R mutants of E. coli; CAN 109): +
Growth in poison agar medium (Nal^R mutants of E. coli; CAN 110): +
Growth in poison agar medium (Nal^R mutants of E. coli; CAN 111): +
Growth in poison agar medium (Nal^R mutants of E. coli; CAN 112): +
Growth in poison agar medium (Nal^R mutants of E. coli; CAN 113): +
Growth in poison agar medium (Nal^R mutants of E. coli; CAN 114): +
Growth in poison agar medium (Nal^R mutants of E. coli; CAN 115): +
Growth in poison agar medium (Nal^R mutants of E. coli; CAN 116): +
Growth in poison agar medium (Nal^R mutants of E. coli; CAN 117): +
Growth in poison agar medium (Nal^R mutants of E. coli; CAN 118): +
Growth in poison agar medium (Nal^R mutants of E. coli; CAN 119): +
Growth in poison agar medium (Nal^R mutants of E. coli; CAN 120): +
Growth in poison agar medium (Nal^R mutants of E. coli; CAN 121): +
Growth in poison agar medium (Nal^R mutants of E. coli; CAN 122): +
Growth in poison agar medium (Nal^R mutants of E. coli; CAN 123): +
Growth in poison agar medium (Nal^R mutants of E. coli; CAN 124): +
Growth in poison agar medium (Nal^R mutants of E. coli; CAN 125): +
Growth in poison agar medium (Nal^R mutants of E. coli; CAN 126): +

O=C(N[C@H](CO)[C@H](O)c1ccc([N+](=O)[O-])cc1)C(Cl)Cl [Chloromphenicol]
concentration against which the strain is resistant (mdr) [2]: 20 µg/mL

CO[C@H]1/C=C/O[C@@]2(C)Oc3c(C)c(O)c4c(O)c(c(/C=N/N5CCN(C)CC5)c(O)c4c3C2=O)NC(=O)/C(C)=C\C=C\[C@H](C)[C@H](O)[C@@H](C)[C@@H](O)[C@@H](C)[C@H](OC(C)=O)[C@@H]1C [Rifampicin]
concentration against which the strain is resistant (mdr) [2]: 40 µg/mL
